Experimental data: the NIST ThermoML archive (doi:10.1016/j.jct.2012.07.018)

Key:
[1] = molar heat capacity at constant pressure; conditions: Liquid, Flow calorimetry
[2] = molar heat capacity at constant pressure; xn = mol fraction of the nth substance listed; conditions: 313.15 K, Liquid, Flow calorimetry

C1CCCCC1 [cyclohexane]
molar heat capacity at constant pressure [J/K/mol], [1]
Conditions	100 kPa	5000 kPa	10000 kPa	15000 kPa	20000 kPa
293.15 K	154.1	152	151.1	149.9	148.7
313.15 K	162.7	160.7	158.8	157.3	155.9
333.15 K	171	169.1	166.8	164.9	163.4

C1CCCCC1 [cyclohexane] + C=CCCCC
[2], x1 = 1
Conditions	molar heat capacity at constant pressure [J/K/mol]
100 kPa	162.7
5000 kPa	160.7
10000 kPa	158.8
15000 kPa	157.3
20000 kPa	155.9

C1CCCCC1 [cyclohexane] + CCO
molar heat capacity at constant pressure [J/K/mol], [2]
Conditions	x1 = 0.1	x1 = 0.1999	x1 = 0.2999	x1 = 0.4	x1 = 0.5002	x1 = 0.6	x1 = 0.7002	x1 = 0.8	x1 = 0.8999	x1 = 1
100 kPa	127.8	134.2	140.2	146.9	152.7	158.2	163.3	167.6	169.9	162.7
5000 kPa	126.5	132.9	138.8	145.2	151	155.9	161	165.2	167.3	160.7
10000 kPa	125	131	137.1	143.1	149	154	159	163.1	165.5	158.8
15000 kPa	123.7	130.2	135.7	141.3	147	152.9	157.6	161.3	163.3	157.3
20000 kPa	122.8	129.5	134.9	140.7	146.6	149	156.3	160.5	162.5	155.9

CCO [ethanol]
[1], 313.15 K
Conditions	molar heat capacity at constant pressure [J/K/mol]
100 kPa	119.2
5000 kPa	118
10000 kPa	116.8
15000 kPa	115.5
20000 kPa	114.9

CCO [ethanol] + C1CCCCC1
[2], x2 = 0
Conditions	molar heat capacity at constant pressure [J/K/mol]
100 kPa	119.2
5000 kPa	118
10000 kPa	116.8
15000 kPa	115.5
20000 kPa	114.9

CCO [ethanol] + C=CCCCC
[2], x2 = 0
Conditions	molar heat capacity at constant pressure [J/K/mol]
100 kPa	119.2
5000 kPa	118
10000 kPa	116.8
15000 kPa	115.5
20000 kPa	114.9

C=CCCCC [hex-1-ene]
molar heat capacity at constant pressure [J/K/mol], [1]
Conditions	100 kPa	5000 kPa	10000 kPa	15000 kPa	20000 kPa
273.15 K	177.2	170.8	168.3	166.3	165.3
293.15 K	184.8	178.6	175.1	172.6	172.1
313.15 K	190.7	186.6	182.9	180.4	178.2

C=CCCCC [hex-1-ene] + C1CCCCC1
molar heat capacity at constant pressure [J/K/mol], [2]
Conditions	x2 = 0	x2 = 0.1	x2 = 0.2	x2 = 0.2999	x2 = 0.4001	x2 = 0.5	x2 = 0.6001	x2 = 0.7	x2 = 0.8	x2 = 0.9
100 kPa	190.7	187.6	184.3	181.3	178	175.2	172.5	169.7	167.2	165.1
5000 kPa	186.6	181.3	180.5	176.8	174.2	171.6	169.6	167.3	163.8	162.2
10000 kPa	182.9	179.7	176.9	173.9	172.2	169.1	167	164.9	162.3	160
15000 kPa	180.4	177.2	174.8	171.7	169.9	167.6	165.4	163.3	160.2	158.1
20000 kPa	178.2	175.4	173.5	170.8	168.6	166.2	163.9	162.1	159.6	157.9

C=CCCCC [hex-1-ene] + CCO
molar heat capacity at constant pressure [J/K/mol], [2]
Conditions	x1 = 0.0999	x1 = 0.2	x1 = 0.3	x1 = 0.3998	x1 = 0.4998	x1 = 0.6	x1 = 0.7001	x1 = 0.8003	x1 = 0.9003	x1 = 1
100 kPa	130.7	142	152	161.5	171.8	–	186.4	192.3	197	190.7
5000 kPa	129	139.8	149.7	158.9	167.9	175.4	182.2	188.7	191.2	186.6
10000 kPa	127.3	138	147.2	156.2	165.1	172.6	179	184.7	188.5	182.9
15000 kPa	126	136.6	145.7	153.7	163.1	170.2	176.3	181.6	185.1	180.4
20000 kPa	125	135.4	144.3	152.9	161.4	168.4	174.7	178.5	183.4	178.2
